Patent US8741892B2, “Compounds” (Boehringer Ingelheim International GmbH, priority 2011, dated 2014)

The molecules below were run against T1, human recombinant mGluR5 (Homo sapiens, UniProt P41594) (assay: positive modulation of mGluR5, calcium based FLIPR assay). Details: HEK 293 cell line expressing human recombinant mGluR5; EC50 of the modulation from peak Ca fluorescence signal after glutamate at approx. 5% basal stimulation.
T1 construct: expressed in transfected cells; host or cells: HEK 293
Summary of the method: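 HEK 293 cells expressing human recombinant mGluR5, Calcium-4 dye-loaded in Ringer solution pH 7.4. Compound (1% DMSO final) preincubated 5 min, then glutamate at ~5% of maximal effect added; peak Ca2+ fluorescence gives EC50 by nonlinear regression, normalized to DMSO (100%) and 10 μM CDPPB (200%) controls.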

T1 sequence (P41594 21-1212): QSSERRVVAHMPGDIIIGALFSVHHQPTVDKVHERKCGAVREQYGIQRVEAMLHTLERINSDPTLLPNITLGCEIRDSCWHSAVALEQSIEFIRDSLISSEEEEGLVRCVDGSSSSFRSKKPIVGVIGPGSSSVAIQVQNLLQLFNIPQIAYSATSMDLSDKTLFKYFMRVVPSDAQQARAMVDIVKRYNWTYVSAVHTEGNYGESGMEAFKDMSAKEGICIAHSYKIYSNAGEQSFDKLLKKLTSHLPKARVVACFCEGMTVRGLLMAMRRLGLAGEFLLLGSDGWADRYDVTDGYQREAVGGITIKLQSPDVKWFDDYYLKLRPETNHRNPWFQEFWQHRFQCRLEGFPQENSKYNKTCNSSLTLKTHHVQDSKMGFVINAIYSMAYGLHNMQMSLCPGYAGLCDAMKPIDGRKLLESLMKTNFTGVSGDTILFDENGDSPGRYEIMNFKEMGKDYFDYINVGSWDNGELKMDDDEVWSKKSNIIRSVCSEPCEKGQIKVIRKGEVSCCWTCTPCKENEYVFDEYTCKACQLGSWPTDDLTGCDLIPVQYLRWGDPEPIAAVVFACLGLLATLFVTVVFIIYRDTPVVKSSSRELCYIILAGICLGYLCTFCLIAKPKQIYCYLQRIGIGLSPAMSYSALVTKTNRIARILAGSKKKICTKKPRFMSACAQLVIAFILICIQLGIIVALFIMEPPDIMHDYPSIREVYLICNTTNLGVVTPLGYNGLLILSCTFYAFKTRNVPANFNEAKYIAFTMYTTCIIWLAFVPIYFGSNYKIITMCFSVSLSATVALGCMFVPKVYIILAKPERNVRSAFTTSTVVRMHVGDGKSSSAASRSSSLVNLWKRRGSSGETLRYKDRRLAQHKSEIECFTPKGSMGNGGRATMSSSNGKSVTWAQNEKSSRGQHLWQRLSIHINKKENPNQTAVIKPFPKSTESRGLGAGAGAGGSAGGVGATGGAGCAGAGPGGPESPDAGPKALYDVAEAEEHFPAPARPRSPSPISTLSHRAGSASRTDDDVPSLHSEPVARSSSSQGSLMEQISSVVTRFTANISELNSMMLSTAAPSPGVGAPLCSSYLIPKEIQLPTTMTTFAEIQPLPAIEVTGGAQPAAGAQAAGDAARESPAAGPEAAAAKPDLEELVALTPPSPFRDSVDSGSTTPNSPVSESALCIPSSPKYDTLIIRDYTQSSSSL

EC50 | Compound
1410 nM | COc1ccc(-c2cc(C(C)C)n(CC(=O)N3Cc4nc(C)sc4C3)n2)cc1 [Example 7.02.045]
28 nM | COc1cc(C2=CCN(C(=O)Cn3nc(-c4ccc(C)c(C)c4)cc3-c3ccccc3)CC2)ncn1 [Example 7.02.087]
92 nM | Cc1cc(-c2cc(-c3ccccc3)n(CC(=O)N3CCC(c4ccccn4)CC3)n2)ccc1F [Example 7.02.013]
11 nM | Cc1nc2c(s1)CCN(C(=O)Cn1nc(-c3ccc(C)c(C)c3)cc1-c1ccccc1)CC2 [Example 7.02.086]
280 nM | COc1ccc(-c2cc(-c3ccccc3)n(CC(=O)N3Cc4nc(C)sc4C3)n2)cc1C [Example 7.02.233]
66 nM | Cc1ccc(-c2cc(-c3ccccc3)n(CC(=O)N3CCc4nc(N)sc4CC3)n2)nc1 [Example 7.02.117]
689 nM | O=C(Cn1nc(-c2ccccc2)cc1-c1ccccc1)N1CCc2c(cccc2C(F)(F)F)C1 [Example 7.01.045]
87 nM | CCc1cc(-c2ccc(F)c(C)c2)nn1CC(=O)N1CCc2oc(C)nc2C1 [Example 7.01.075]
6 nM | Cc1cc(-c2cc(-c3ccccc3)n(CC(=O)N3CCN(c4nccs4)CC3)n2)ccc1F [Example 7.02.216]
430 nM | CCc1cc(-c2ccc(F)c(C)c2)nn1CC(=O)N1CCC(c2nnc(C)o2)CC1 [Example 7.02.157]
398 nM | CCc1cc(-c2ccc(F)c(C)c2)nn1CC(=O)N1CCC(c2nnc(COC)o2)CC1 [Example 7.02.228]
187 nM | CCCc1cc(-c2ccc(F)c(C)c2)nn1CC(=O)N1CCC(c2ncc(OC)cn2)CC1 [Example 7.02.069]
258 nM | COc1cccc(N2CCN(C(=O)Cn3nc(-c4ccccc4)cc3-c3ccccc3)CC2=O)c1 [Example 7.01.020]
41 nM | Cc1nc2c(s1)CN(C(=O)Cn1nc(-c3ccc(C)c(C)c3)cc1-c1ccccc1)C2 [Example 7.02.090]
6 nM | CCCc1cc(-c2ccc(F)c(C)c2)nn1CC(=O)N1CCc2nc(C)sc2CC1 [Example 7.02.067]
359 nM | Cc1nc2c(s1)CN(C(=O)Cn1nc(-c3ccccc3)cc1-c1ccccc1)C2 [Example 7.01.038]
19 nM | Cc1cnc(C2=CCN(C(=O)Cn3nc(-c4cccc(C#N)c4)cc3-c3ccccc3)CC2)o1 [Example 7.02.188]
31 nM | Cc1cc(-c2cc(-c3ccccc3)n(CC(=O)N3Cc4cccnc4C3)n2)ccc1F [Example 7.02.229]
177 nM | COc1cccc(N2CCN(C(=O)Cn3nc(-c4cc(C)c(C)cn4)cc3-c3ccccc3)CC2=O)c1 [Example 7.02.064]
18 nM | Cc1coc(N2CCN(C(=O)Cn3nc(-c4ccc(F)c(C)c4)cc3-c3ccccc3)CC2)n1 [Example 7.02.165]
381 nM | Cc1nc2c(s1)CN(C(=O)Cn1nc(-c3ccccc3)cc1-c1ccccc1)C2 [Example 7.01.005]
600 nM | O=C(Cn1nc(-c2ccccc2)cc1-c1ccccc1)N1CCC(c2noc3ccccc23)CC1 [Example 7.02.007]
44 nM | Cc1csc(N2CCN(C(=O)Cn3nc(-c4ccc(F)c(C)c4)cc3-c3ccccc3)CC2)n1 [Example 7.02.159]
26 nM | Cc1nc2c(o1)CCN(C(=O)Cn1nc(-c3ccc(F)c(C)c3)cc1-c1ccccc1)C2 [Example 7.01.085]

EC50 | Compound
412 nM | CCc1cc(-c2ccc(F)c(C)c2)nn1CC(=O)N1CCc2ccsc2C1 [Example 7.01.076]
245 nM | CCc1cc(-c2ccc(F)c(C)c2)nn1CC(=O)N1CCc2ccc(N)cc2CC1 [Example 7.01.072]
1850 nM | O=C(Cn1nc(-c2ccccc2)cc1-c1ccccc1)N1CCC(c2nccs2)CC1 [Example 7.01.044]
997 nM | Cc1nc(C2CCN(C(=O)Cn3nc(-c4ccccc4)cc3-c3ccccc3)CC2)oc1C [Example 7.02.008]
295 nM | COc1cccc(C2CCN(C(=O)Cn3nc(-c4ccc(F)c(C)c4)cc3-c3ccccc3)CC2)c1 [Example 7.02.146]
53 nM | Cc1cc(-c2cc(-c3ccccc3)n(CC(=O)N3CCc4ccc(N)cc4CC3)n2)ccc1F [Example 7.01.095]
760 nM | Nc1nc2c(s1)CCN(C(=O)Cn1nc(-c3ccc(F)cn3)cc1-c1ccc(F)cc1)CC2 [Example 7.02.060]
55 nM | Nc1nc2c(s1)CCN(C(=O)Cn1nc(-c3ccc(F)cc3)cc1-c1ccc(F)cc1)CC2 [Example 7.02.001, 1-(2-Amino-4,5,7,8-tetrahydro-thiazolo (4,5-d)azepin-6-yl)-2-[3,5-bis-(4-fluoro-phenyl)-pyrazol-1-yl]-ethanone]
10 nM | Cc1nc2c(o1)CCN(C(=O)Cn1nc(-c3ccc(F)c(C)c3)cc1-c1ccccc1)CC2 [Example 7.02.106]
108 nM | Cc1nc(N2CCN(C(=O)Cn3nc(-c4ccc(F)c(C)c4)cc3C)CC2)no1 [Example 7.02.154]
1540 nM | O=C(Cn1nc(-c2ccccc2)cc1-c1ccccc1)N1CCc2c(F)cccc2C1 [Example 7.01.009]
29 nM | CCCc1cc(-c2ccc(F)c(C)c2)nn1CC(=O)N1CCc2nc(N)sc2CC1 [Example 7.02.033]
192 nM | COc1ccc(-c2cc(C(C)C)n(CC(=O)N3CCc4nc(N)sc4CC3)n2)cc1 [Example 7.02.042]
1000 nM | N#Cc1ccc2c(c1)CCN(C(=O)Cn1nc(-c3ccccc3)cc1-c1ccccc1)C2 [Example 7.01.046]
166 nM | Nc1nc2c(s1)CCN(C(=O)Cn1nc(-c3ccccc3)cc1-c1ccccc1)CC2 [Example 7.01.023]
27 nM | Cc1cnc(C2=CCN(C(=O)Cn3nc(-c4cccc(Cl)c4)cc3-c3ccccc3)CC2)o1 [Example 7.02.142]
13 nM | Cc1nc2c(s1)CCN(C(=O)Cn1nc(-c3ccc(F)cc3)cc1-c1ccc(F)cc1)CC2 [Example 7.02.010]
53 nM | CCc1cc(-c2ccc(F)c(C)c2)nn1CC(=O)N1CCc2nc(OC)sc2CC1 [Example 7.01.054]
12 nM | Cc1cc(-c2cc(-c3ccccc3)n(CC(=O)N3CCc4nc(N)sc4CC3)n2)ccc1F [Example 7.02.023]
35 nM | COCc1nnc(C2CCN(C(=O)Cn3nc(-c4ccc(F)c(C)c4)cc3-c3ccccc3)CC2)o1 [Example 7.02.227]
186 nM | CCc1cc(-c2cc(C)c(F)c(C)c2)nn1CC(=O)N1CCc2nc(C)sc2CC1 [Example 7.02.132]
11 nM | COc1cc(C2=CCN(C(=O)Cn3nc(-c4ccc(F)c(C)c4)cc3-c3ccccc3)CC2)ncn1 [Example 7.02.022]
122 nM | CCc1nnc(N2CCN(C(=O)Cn3nc(-c4ccc(F)c(C)c4)cc3CC)CC2)o1 [Example 7.02.163]
29 nM | N#Cc1cccc(-c2cc(-c3ccccc3)n(CC(=O)N3CCc4nc(N)sc4CC3)n2)c1 [Example 7.02.190]

EC50 | Compound
710 nM | O=C(Cn1nc(-c2ccccc2)cc1-c1ccccc1)N1Cc2nc(-c3ccccc3)sc2C1 [Example 7.01.032]
15 nM | COc1cc(-c2cc(-c3ccccc3)n(CC(=O)N3CC=C(c4ncc(C)o4)CC3)n2)ccc1F [Example 7.02.153]
116 nM | Cc1csc(N2CCN(C(=O)Cn3nc(-c4ccc(F)c(C)c4)cc3-c3ccccc3)CC2)n1 [Example 7.02.158]
11 nM | CCc1nc2c(o1)CN(C(=O)Cn1nc(-c3ccc(F)c(C)c3)cc1CC)C2 [Example 7.02.256]
221 nM | Cc1nc2c(s1)CN(C(=O)Cn1nc(-c3cc(C)c(F)cn3)cc1-c1ccccc1)C2 [Example 7.02.176]
1550 nM | CCNC(=O)Nc1nc2c(s1)CN(C(=O)Cn1nc(-c3ccccc3)cc1-c1ccccc1)CC2 [Example 7.01.041]
27 nM | Cc1cnc(C2=CCN(C(=O)Cn3nc(-c4ccc(F)c(C)c4)cc3-c3ccccc3)CC2)nc1 [Example 7.02.102]
70 nM | CCc1cc(-c2ccc(F)c(C)c2)nn1CC(=O)N1CCC(c2ncc(C)o2)CC1 [Example 7.02.207]
90 nM | Cc1cc(-c2cc(-c3ccccc3)n(CC(=O)N3CCc4nc(N)oc4CC3)n2)ccc1F [Example 7.01.094]
200 nM | Cc1nnc(N2CCN(C(=O)Cn3nc(-c4ccc(OC(F)F)cn4)cc3-c3ccccc3)CC2)o1 [Example 7.02.234]
321 nM | CCc1cc(-c2cccc(C)c2)nn1CC(=O)N1Cc2nc(C)sc2C1 [Example 7.02.080]
15 nM | Cc1nc2c(s1)CCN(C(=O)Cn1nc(-c3cccc(C#N)c3)cc1-c1ccccc1)CC2 [Example 7.02.189]
915 nM | COc1ccc(-c2cc(C(C)C)n(CC(=O)N3CCc4cc(OC)ccc4C3)n2)cc1 [Example 7.02.039]
914 nM | N#Cc1ccc(Cl)cc1NC1CCN(C(=O)Cn2nc(-c3ccccc3)cc2-c2ccccc2)CC1 [Example 7.01.053]
276 nM | CCc1cc(-c2cc(C)c(F)c(C)c2)nn1CC(=O)N1CCc2nc(N)sc2CC1 [Example 7.02.133]
39 nM | CCc1cc(-c2cccc(Cl)c2)nn1CC(=O)N1CC=C(c2ncc(C)o2)CC1 [Example 7.02.107]
330 nM | CCc1cc(-c2cccc(C#N)c2)nn1CC(=O)N1CCC(c2ncc(C)o2)CC1 [Example 7.02.183]
552 nM | COc1cccc(-c2cc(C3CCCCC3)n(CC(=O)N3CCN(c4cccc(OC)c4)C(=O)C3)n2)c1 [Example 7.02.053]
573 nM | O=C(Cn1nc(-c2ccccc2)cc1-c1ccccc1)N1CCN(c2nccc3sccc23)CC1 [Example 7.01.048]
122 nM | CCc1cc(-c2ccc(F)c(C)c2)nn1CC(=O)N1CCc2nc(C)sc2C1 [Example 7.01.067]
153 nM | CCc1cc(-c2ccc(F)c(C)c2)nn1CC(=O)N1CCc2cc(-c3ccccc3)nnc2CC1 [Example 7.01.066]
127 nM | CCc1cc(-c2cccc(Cl)c2)nn1CC(=O)N1CCC(c2ncc(C)o2)CC1 [Example 7.02.108]
42 nM | Cc1nnc(C2CCN(C(=O)Cn3nc(-c4ccc(C)c(C)c4)cc3-c3ccccc3)CC2)o1 [Example 7.02.085]
